Laboratory results: US20100311714A1, “1H-IMIDAZO[4,5-c]QUINOLINONE COMPOUNDS” (priority 2009, published 2010)

Columns and labels:
[1] = test system: PKB Ser473 phosphorylation in Rat1-myr-HA-p110 beta cells; assay: Reverse protein array, PKB Ser473 phosphorylation in Rat1-myr-HA-p110 beta cells; assay type: cell-based; settings: Rattus norvegicus, 0.5 h, 30 minutes compound incubation, read-out: p-PKB/IC50_beta
[2] = test system: PKB Ser473 phosphorylation in Rat1-myr-HA-p110 delta cells; assay: Reverse protein array, PKB Ser473 phosphorylation in Rat1-myr-HA-p110 delta cells; assay type: cell-based; settings: Rattus norvegicus, 0.5 h, 30 minutes compound incubation, read-out: p-PKB/IC50_delta

With `CCNc1cc(-c2ccc3ncc4c(c3c2)n(-c2ccc(N3CC(F)(F)C3)nc2C)c(=O)n4C)cnc1CO` [Example 24.3, 1-[6-(3,3-Difluoro-azetidin-1-yl)-2-methyl-pyridin-3-yl]-8-(5-ethylamino-6-hydroxymethyl-pyridin-3-yl)-3-methyl-1,3-dihydro-imidazo[4,5-c]quinolin-2-one] the IC50 [1] was under 4.57 nM and the IC50 [2] was 8.1 nM.

`Cc1ccc(-n2c(=O)n(C)c3cnc4ccc(-c5cnc(N)c(C(F)(F)F)c5)cc4c32)c(C)n1` [Example 14.5, 8-(6-Amino-5-trifluoromethyl-pyridin-3-yl)-1-(2,6-dimethyl-pyridin-3-yl)-3-methyl-1,3-dihydro-imidazo[4,5-c]quinolin-2-one] gave an IC50 [1] of 10.8 nM and an IC50 [2] of 14.4 nM.

For `Cc1nc(N2CCC(O)C2)ccc1-n1c(=O)n(C)c2cnc3ccc(-c4cncc(OC(C)C)c4)cc3c21` (centres unmarked) [Example 27.1, 1-[6-(3-Hydroxy-pyrrolidin-1-yl)-2-methyl-pyridin-3-yl]-8-(5-isopropoxy-pyridin-3-yl)-3-methyl-1,3-dihydro-imidazo[4,5-c]quinolin-2-one], the IC50 [1] was 85.7 nM and the IC50 [2] was 64.5 nM.

In the case of `CCNc1cc(-c2ccc3ncc4c(c3c2)n(-c2ccc(N(C)CCOC)nc2C)c(=O)n4C)cnc1C` [Example 15.6, 8-(5-Ethylamino-6-methyl-pyridin-3-yl)-1-{6-[(2-methoxy-ethyl)-methyl-amino]-2-methyl-pyridin-3-yl}-3-methyl-1,3-dihydro-imidazo[4,5-c]quinolin-2-one], the IC50 [1] is reported as 7 nM and the IC50 [2] is reported as 6.8 nM.

Compound `Cc1ccc(-n2c(=O)n(C)c3cnc4ccc(-c5cncc(NC(C)C)c5)cc4c32)c(C)n1` [Example 14.8, 1-(2,6-Dimethyl-pyridin-3-yl)-8-(5-isopropylamino-pyridin-3-yl)-3-methyl-1,3-dihydro-imidazo[4,5-c]quinolin-2-one] has an IC50 [1] of 61.4 nM and an IC50 [2] of 34.4 nM.

Compound `CCOc1ccc(-c2ccc3ncc4c(c3c2)n(-c2ccc(C)nc2C)c(=O)n4C)cn1` [Example 14.2, 1-(2,6-Dimethyl-pyridin-3-yl)-8-(6-ethoxy-pyridin-3-yl)-3-methyl-1,3-dihydro-imidazo[4,5-c]quinolin-2-one] has an IC50 [1] of 21.7 nM and an IC50 [2] of 68.1 nM.

`CNC(=O)c1cc(-c2ccc3ncc4c(c3c2)n(-c2ccc(F)nc2C)c(=O)n4C)cnc1N` [Example 7.14, 2-Amino-5-[1-(6-fluoro-2-methyl-pyridin-3-yl)-3-methyl-2-oxo-2,3-dihydro-1H-imidazo[4,5-c]quinolin-8-yl]-N-methyl-nicotinamide] showed an IC50 [1] of 50.6 nM and an IC50 [2] of 140 nM.

`Cc1nc(N2CC(F)(F)C(F)(F)C2)ccc1-n1c(=O)n(C)c2cnc3ccc(-c4cncc(C(C)(C)O)c4)cc3c21` [Example 35.1, 8-[5-(1-Hydroxy-1-methyl-ethyl)-pyridin-3-yl]-3-methyl-1-[2-methyl-6-(3,3,4,4-tetrafluoro-pyrrolidin-1-yl)-pyridin-3-yl]-1,3-dihydro-imidazo[4,5-c]quinolin-2-one] gave an IC50 [1] of 27.9 nM and an IC50 [2] of 25.5 nM.

For `CCNc1cc(-c2ccc3ncc4c(c3c2)n(-c2ccc(N(C)CC)nc2C)c(=O)n4C)cnc1C` [Example 12.2, 8-(5-Ethylamino-6-methyl-pyridin-3-yl)-1-[6-(ethyl-methyl-amino)-2-methyl-pyridin-3-yl]-3-methyl-1,3-dihydro-imidazo[4,5-c]quinolin-2-one], the IC50 [1] was under 4.57 nM and the IC50 [2] was under 4.57 nM.

`COCCN(C)c1ccc(-n2c(=O)n(C)c3cnc4ccc(-c5cnc(N(C)C)nc5)cc4c32)c(C)n1` [Example 15.5, 8-(2-Dimethylamino-pyrimidin-5-yl)-1-{6-[(2-methoxy-ethyl)-methyl-amino]-2-methyl-pyridin-3-yl}-3-methyl-1,3-dihydro-imidazo[4,5-c]quinolin-2-one] gave an IC50 [1] of 132 nM and an IC50 [2] of 229 nM.

`CNc1ccc(-c2ccc3ncc4c(c3c2)n(-c2cnc(F)cc2C)c(=O)n4C)cn1` [Example 16.4, 1-(6-Fluoro-4-methyl-pyridin-3-yl)-3-methyl-8-(6-methylamino-pyridin-3-yl)-1,3-dihydro-imidazo[4,5-c]quinolin-2-one] showed an IC50 [1] of 141 nM and an IC50 [2] of 408 nM.

For `COCc1ncc(-c2ccc3ncc4c(c3c2)n(-c2ccc(OC)nc2OC)c(=O)n4C)cc1OC` [Example 8.12, 1-(2,6-Dimethoxy-pyridin-3-yl)-8-(5-methoxy-6-methoxymethyl-pyridin-3-yl)-3-methyl-1,3-dihydro-imidazo[4,5-c]quinolin-2-one], the IC50 [1] was 81.6 nM and the IC50 [2] was 134 nM.

Compound `COc1ncccc1-n1c(=O)n(C)c2cnc3ccc(-c4cnc(N(C)C)nc4)cc3c21` [Example 1.9, 8-(2-Dimethylamino-pyrimidin-5-yl)-1-(2-methoxy-pyridin-3-yl)-3-methyl-1,3-dihydro-imidazo[4,5-c]quinolin-2-one] has an IC50 [1] of 60.3 nM and an IC50 [2] of 83.9 nM.

`CNc1ccc(-c2ccc3ncc4c(c3c2)n(-c2cccnc2OC)c(=O)n4C)cn1` [Example 1.4, 1-(2-Methoxy-pyridin-3-yl)-3-methyl-8-(6-methylamino-pyridin-3-yl)-1,3-dihydro-imidazo[4,5-c]quinolin-2-one] gave an IC50 [1] of 9.81 nM and an IC50 [2] of 29.4 nM.

`CNc1ncc(-c2ccc3ncc4c(c3c2)n(-c2ccc(OCCOC)nc2C)c(=O)n4C)cn1` [Example 13.5, 1-[6-(2-Methoxy-ethoxy)-2-methyl-pyridin-3-yl]-3-methyl-8-(2-methylamino-pyrimidin-5-yl)-1,3-dihydro-imidazo[4,5-c]quinolin-2-one] gave an IC50 [1] of 11.6 nM and an IC50 [2] of 37.1 nM.

`COc1ccc(-c2ccc3ncc4c(c3c2)n(-c2cccnc2)c(=O)n4C)cn1` [Example 5.4, 8-(6-Methoxy-pyridin-3-yl)-3-methyl-1-pyridin-3-yl-1,3-dihydro-imidazo[4,5-c]quinolin-2-one] gave an IC50 [1] of 152 nM and an IC50 [2] of 223 nM.

Work on `CNc1ncc(-c2ccc3ncc4c(c3c2)n(-c2cccnc2C)c(=O)n4C)cn1` [Example 2.2, 3-Methyl-8-(2-methylamino-pyrimidin-5-yl)-1-(2-methyl-pyridin-3-yl)-1,3-dihydro-imidazo[4,5-c]quinolin-2-one] yielded an IC50 [1] of 14.7 nM and an IC50 [2] of 20.5 nM.

`COc1ncccc1-n1c(=O)n(C)c2cnc3ccc(-c4cnc(N)c(C(F)(F)F)c4)cc3c21` [Example 1.3, 8-(6-Amino-5-trifluoromethyl-pyridin-3-yl)-1-(2-methoxy-pyridin-3-yl)-3-methyl-1,3-dihydro-imidazo[4,5-c]quinolin-2-one] was tested, and the IC50 [1] was 13.9 nM and the IC50 [2] was 15.5 nM.

Work on `CCNc1cc(-c2ccc3ncc4c(c3c2)n(-c2ccc(OC)nc2C)c(=O)n4C)cnc1C` [Example 11.7, 8-(5-Ethylamino-6-methyl-pyridin-3-yl)-1-(6-methoxy-2-methyl-pyridin-3-yl)-3-methyl-1,3-dihydro-imidazo[4,5-c]quinolin-2-one] yielded an IC50 [1] of 7.5 nM and an IC50 [2] of 8.3 nM.

Work on `CCOc1ccc(-c2ccc3ncc4c(c3c2)n(-c2ccc(N(C)C)nc2C)c(=O)n4C)cn1` [Example 19.3, 1-(6-Dimethylamino-2-methyl-pyridin-3-yl)-8-(6-ethoxy-pyridin-3-yl)-3-methyl-1,3-dihydro-imidazo[4,5-c]quinolin-2-one] yielded an IC50 [1] of 14.2 nM and an IC50 [2] of 74.7 nM.

Work on `COc1ncccc1-n1c(=O)n(C)c2cnc3ccc(-c4cnc5c(ccn5C)c4)cc3c21` [Example 1.7, 1-(2-Methoxy-pyridin-3-yl)-3-methyl-8-(1-methyl-1H-pyrrolo[2,3-b]pyridin-5-yl)-1,3-dihydro-imidazo[4,5-c]quinolin-2-one] yielded an IC50 [1] of 29.6 nM and an IC50 [2] of 72 nM.

In the case of `COCCN(C)c1ccc(-n2c(=O)n(C)c3cnc4ccc(-c5cnc6c(ccn6C)c5)cc4c32)c(C)n1` [Example 15.7, 1-{6-[(2-Methoxy-ethyl)-methyl-amino]-2-methyl-pyridin-3-yl}-3-methyl-8-(1-methyl-1H-pyrrolo[2,3-b]pyridin-5-yl)-1,3-dihydro-imidazo[4,5-c]quinolin-2-one], the IC50 [1] is reported as 24.4 nM and the IC50 [2] is reported as 44.3 nM.

`COCCOc1ccc(-n2c(=O)n(C)c3cnc4ccc(-c5cncc(N6CCC6)c5)cc4c32)c(C)n1` [Example 22.2, 8-(5-Azetidin-1-yl-pyridin-3-yl)-1-[6-(2-methoxy-ethoxy)-2-methyl-pyridin-3-yl]-3-methyl-1,3-dihydro-imidazo[4,5-c]quinolin-2-one] was tested, and the IC50 [1] was 32.1 nM and the IC50 [2] was 83.9 nM.

`CNc1ccc(-c2ccc3ncc4c(c3c2)n(-c2ccc(NC(=O)COC)nc2C)c(=O)n4C)cn1` [Example 20.4, 2-Methoxy-N-{6-methyl-5-[3-methyl-8-(6-methylamino-pyridin-3-yl)-2-oxo-2,3-dihydro-imidazo[4,5-c]quinolin-1-yl]-pyridin-2-yl}-acetamide] gave an IC50 [1] of 9.5 nM and an IC50 [2] of 197 nM.

With `COCCN(C)c1ccc(-n2c(=O)n(C)c3cnc4ccc(-c5cncc(N)c5)cc4c32)c(C)n1` [Example 15.8, 8-(5-Amino-pyridin-3-yl)-1-{6-[(2-methoxy-ethyl)-methyl-amino]-2-methyl-pyridin-3-yl}-3-methyl-1,3-dihydro-imidazo[4,5-c]quinolin-2-one] the IC50 [1] was 23.2 nM and the IC50 [2] was 59.7 nM.

Work on `CCOc1ccc(-c2ccc3ncc4c(c3c2)n(-c2ccc(N(C)CCOC)nc2C)c(=O)n4C)cn1` [Example 15.3, 8-(6-Ethoxy-pyridin-3-yl)-1-{6-[(2-methoxy-ethyl)-methyl-amino]-2-methyl-pyridin-3-yl}-3-methyl-1,3-dihydro-imidazo[4,5-c]quinolin-2-one] yielded an IC50 [1] of 27.9 nM and an IC50 [2] of 212 nM.

With `COCCOc1cc(-c2ccc3ncc4c(c3c2)n(-c2ccc(OC)nc2OC)c(=O)n4C)cnc1C` [Example 8.9, 1-(2,6-Dimethoxy-pyridin-3-yl)-8-[5-(2-methoxy-ethoxy)-6-methyl-pyridin-3-yl]-3-methyl-1,3-dihydro-imidazo[4,5-c]quinolin-2-one] the IC50 [1] was 39.5 nM and the IC50 [2] was 74.9 nM.

`CCOc1ccc(-c2ccc3ncc4c(c3c2)n(-c2cncc(C)c2)c(=O)n4C)cn1` [Example 17.1, 8-(6-Ethoxy-pyridin-3-yl)-3-methyl-1-(5-methyl-pyridin-3-yl)-1,3-dihydro-imidazo[4,5-c]quinolin-2-one] was tested, and the IC50 [1] was 202 nM and the IC50 [2] was 412 nM.
